Assay results taken from patent publication US12441757B2, “Platform for screening NAD+ binding proteins in a cellular context” (OREGON HEALTH & SCIENCE UNIVERSITY, priority 2020, dated 2025).

What was measured:
PARP-1 = target: T1, PARP-1 (Homo sapiens, UniProt P09874); experiment: In vitro PARP-1 auto-PARylation activity assay; assay type: biochemical; details: dose response; activated DNA, 50 μM NAD^+, anti-ADPr immunoblot
T1 construct: Full length His6-PARP-1 and His6-SUMO-PARP-10 proteins we expressed and purified; His6 (N); made in house
Description: FIG. 5. A clickable NAD^+ PAL probe (2-ad-BAD) inhibits PARP-1 and PARP-10 activity in concentration response. (FIG. 5A) 50 nM of recombinant His6-PARP-1 was incubated with 10 μg/mL activated DNA in 100 mM NaCl, 50 mM HEPES [pH 7.4], 4 mM MgCl2, 0.2 mM TCEP for 10 min, then treated with indicated competitor (BAD or the PARP-1 inhibitor NMS-P118) for additional 10 min. 50 μM NAD^+ was then added to initiate auto-PARylation of PARP-1. After 10 min, the reaction was quenched by addition of 4× Laemmli sample buffer and boiling at 95° C. for 5 min. Protein samples were separated by SDS-PAGE, transferred onto nitrocellulose and probed with indicated antibodies. (FIG. 5B) Experiments were performed essentially as in (5A) with the exception that damaged DNA was omitted and the PARP-10 inhibitor ITK6 was used instead of NMS-P118. (FIG. 5C) Densitometry analyses of (5A) and (5B) comparing inhibitory effect of BAD on PARP-1 and PARP-10 auto-ADP-ribosylation. Data are mean±SEM of 3 independent experiments. […]
Samples were run on 10% or 12% acrylamide gels for ˜1 h at 180 V in Mini-PROTEAN Tetra cell (Biorad). […] Band intensities we quantified with ImageJ.

Adenylate kinase 1 (AK1) = target: T2, Adenylate kinase 1 (AK1) (Homo sapiens, UniProt P00568); experiment: Labeling of recombinant AK1 by 2-ad-BAD and nucleotide competition; assay type: binding; details: 150 μM competitor, 0.3 μM 2-ad-BAD
T2 construct: purchased Novus Biologicals NBP1-50855
T2 sequence (P00568 1-194): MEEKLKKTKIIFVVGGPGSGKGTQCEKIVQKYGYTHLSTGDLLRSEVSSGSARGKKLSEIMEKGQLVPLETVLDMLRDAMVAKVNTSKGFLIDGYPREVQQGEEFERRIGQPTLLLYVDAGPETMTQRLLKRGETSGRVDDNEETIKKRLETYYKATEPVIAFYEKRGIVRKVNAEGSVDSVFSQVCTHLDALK
Description: FIG. 10. Validation of Adenylate kinase 1 (AK1) as a putative NAD^+/NADH binding protein. […] Recombinant AK1 (500 nM) in 100 mM NaCl, 50 mM HEPES [pH 7.4], 4 mM MgCl2, 0.2 mM TCEP was incubated with 150 μM of indicated competitor molecule for 10 min, followed by 10 min treatment with 0.3 μM 2-ad-BAD. Samples were then subjected to UV light for 5 min, conjugated to TAMRA using Click chemistry, separated by SDS-PAGE and in-gel fluorescence was recorded. […] (FIG. 10B) A differential scanning fluorimetry assay is supportive of NADH as novel AK1 ligand. Recombinant AK1 (0.1 mg/mL) in 100 mM NaCl, 50 mM HEPES, pH 7.4, 4 mM MgCl2, 7.5× SYPRO Orange was tested for thermal stability in the absence or presence of indicated nucleotides at 1 mM. Ordinate reports on the difference of melt peak temperature prompted by indicated treatments. Data are mean±SEM of 3 independent experiments.
Treatments. Recombinant PARP-1 (250 nM), PARP-10 (250 nM) or AK1 (500 nM; Novus Biologicals) were diluted in 100 mM NaCl, 50 mM HEPES [pH 7.4], 4 mM MgCl2, 0.2 mM TCEP. PARP-1 reactions also contained 10 μg/mL of activated calf thymus DNA (Sigma-Aldrich D4522), unless otherwise noted. In experiments reported in FIG. 2, the samples were treated with 0.1 μM 2-ad-BAD or ad-olaparib for 10 min. In competition experiments reported in FIG. 3 and Figure S3, samples were first treated with 150 μM of indicated nucleotides for 10 minute and then with 0.3 μM 2-ad-BAD for additional 10 min. All treatments occurred at RT. Samples were then kept in the dark or irradiated for 5 min in the RPR-100 Photochemical Reactor (Rayonet) equipped with 350 nm lamps at 4° C.
Click Chemistry. 25 μL of each sample was mixed with 5 μL of fatty acid free BSA and SDS to give a final Click reaction concentration of 1 mg/mL and 1%, respectively. Click reactions were started by adding 15 μL of PBS based 3× click reaction mix (final 1× concentrations shown): 100 μM Tris[(1-benzyl-1H-1,2,3triazol-4-yl)methyl]amine (TBTA, Click Chemistry Tools), 1 mM CuSO4, 40 μM tetramethylrhodamine (TAMRA)-azide (Click Chemistry Tools), 1 mM Tris(2-carboxyethyl)phosphine hydrochloride (TCEP, Thermo Fisher) and 5% tert-Butyl alcohol to each sample, and let to proceed for 1 h at RT while gently shaking. Reactions were stopped by adding 4× Laemmli sample buffer and boiling at 95° C. for 5 min.
In gel fluorescence and staining. Samples were loaded to 10 or 12% SDS-polyacrylamide gels and run until the dye front left the gel. In-gel fluorescence was detected with ChemiDoc XRS+ (Biorad) using Rhodamine filter and then the gels were stained with Coomassie blue or Silver using standard protocols.

[1] = tested on: inosine monophosphate dehydrogenase; details: cited from earlier work

T1 sequence (P09874 whole entry): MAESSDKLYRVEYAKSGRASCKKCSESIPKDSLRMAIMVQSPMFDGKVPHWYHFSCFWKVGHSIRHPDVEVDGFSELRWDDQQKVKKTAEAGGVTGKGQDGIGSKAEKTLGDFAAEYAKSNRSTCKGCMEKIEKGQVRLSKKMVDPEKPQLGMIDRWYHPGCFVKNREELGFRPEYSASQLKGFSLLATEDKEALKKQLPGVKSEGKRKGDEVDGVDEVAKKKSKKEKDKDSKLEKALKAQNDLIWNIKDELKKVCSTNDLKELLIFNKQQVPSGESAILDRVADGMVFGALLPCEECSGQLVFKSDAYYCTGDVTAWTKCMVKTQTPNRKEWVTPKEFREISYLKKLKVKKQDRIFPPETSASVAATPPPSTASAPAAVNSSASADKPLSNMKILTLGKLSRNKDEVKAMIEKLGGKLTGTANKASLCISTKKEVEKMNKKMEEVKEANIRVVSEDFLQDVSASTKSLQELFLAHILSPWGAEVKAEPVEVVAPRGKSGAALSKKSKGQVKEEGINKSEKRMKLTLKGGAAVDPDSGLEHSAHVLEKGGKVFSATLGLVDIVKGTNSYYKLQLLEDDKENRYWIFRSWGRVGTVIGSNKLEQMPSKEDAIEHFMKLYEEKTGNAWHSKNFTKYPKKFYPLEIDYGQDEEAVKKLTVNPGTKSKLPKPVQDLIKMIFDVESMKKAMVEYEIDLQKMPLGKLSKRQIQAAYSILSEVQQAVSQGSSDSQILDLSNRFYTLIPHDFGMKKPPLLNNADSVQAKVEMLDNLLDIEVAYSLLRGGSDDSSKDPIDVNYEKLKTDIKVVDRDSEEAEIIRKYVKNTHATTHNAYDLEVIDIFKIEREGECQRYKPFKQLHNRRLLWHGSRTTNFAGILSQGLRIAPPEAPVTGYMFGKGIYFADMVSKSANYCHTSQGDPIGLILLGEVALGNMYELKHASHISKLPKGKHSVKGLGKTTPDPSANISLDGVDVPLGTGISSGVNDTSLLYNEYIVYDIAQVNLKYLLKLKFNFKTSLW

NC(=O)c1cccc([C@@H]2O[C@H](COP(=O)(O)OP(=O)(O)OC[C@H]3O[C@@H](n4cnc5c(N)ncnc54)[C@H](O)[C@@H]3O)[C@@H](O)[C@H]2O)c1 [BAD, benzamide adenine dinucleotide]
inhibition of PARP-1 auto-PARylation (PARP-1): inhibited
competition of 2-ad-BAD labeling of recombinant AK1 (Adenylate kinase 1 (AK1)): effectively competed
binding to and inhibition of NAD^+/NADH binding enzymes (e.g., inosine monophosphate dehydrogenase) [1]: binds to and inhibits
